According to US6358885B1, “Substituted phenylheterocyclic herbicides” (Mississippi State University, priority 1992, dated 2002):

Experiments:
corn = assay: Test C preemergence/postemergence greenhouse plant response rating 0 to 100; assay type: in vivo, Zea mays; settings: POSTEMERGENCE
Summary of the method: (§1)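 Compounds in non-phytotoxic solvent applied preemergence to sandy loam one day after planting, postemergence at the 1–4 leaf stage, or to ~2.5 cm floodwater over silt loam.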

bedstraw = assay: as above; assay type: in vivo, Galium aparine; settings: POSTEMERGENCE
Summary of the method: as §1

downy brome = assay: as above; assay type: in vivo, Bromus tectorum; settings: POSTEMERGENCE
Summary of the method: as §1

barnyardgrass = assay: Test B preemergence/postemergence greenhouse plant response rating 0 to 10; assay type: in vivo, Echinochloa crus-galli; settings: 0 to 10 scale
Summary of the method: (§2)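 Both application timings were run together: seeds got compound preemergence, and established seedlings (two to eighteen cm) got it postemergence. Non-phytotoxic solvent carried the chemical. Ratings are visual, versus controls, at twelve to sixteen days.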

wild oat = assay: Test C preemergence/postemergence greenhouse plant response rating 0 to 100; assay type: in vivo, Avena fatua; settings: POSTEMERGENCE
Summary of the method: as §1

wild buckwheat = assay: Test B preemergence/postemergence greenhouse plant response rating 0 to 10; assay type: in vivo, Polygonum convolvulus; settings: 0 to 10 scale
Summary of the method: as §2

crabgrass = assay: Test C preemergence/postemergence greenhouse plant response rating 0 to 100; assay type: in vivo, Digitaria sanguinalis; settings: POSTEMERGENCE
Summary of the method: as §1

rape = assay: Test B preemergence/postemergence greenhouse plant response rating 0 to 10; assay type: in vivo, Brassica napus; settings: 0 to 10 scale
Summary of the method: as §2

ryegrass = assay: Test C preemergence/postemergence greenhouse plant response rating 0 to 100; assay type: in vivo, Lolium multiflorum; settings: POSTEMERGENCE
Summary of the method: as §1

chickweed = assay: Test B preemergence/postemergence greenhouse plant response rating 0 to 10; assay type: in vivo, Stellaria media; settings: 0 to 10 scale
Summary of the method: as §2

umbrella sedge = assay: Test C flood test plant response rating 0 to 100; assay type: in vivo, Cyperus difformis
Summary of the method: as §1

sugar beet = assay: Test C preemergence/postemergence greenhouse plant response rating 0 to 100; assay type: in vivo, Beta vulgaris; settings: POSTEMERGENCE
Summary of the method: as §1

SMILES: COCN1C(=O)COc2cc(F)c(-c3nn4c(c3Br)CCCC4)cc21 [Compound 67]
- Plant response rating, Corn (corn; 62 g/ha, 0 to 100 scale): 40
- Plant response rating (0 to 100), Corn (corn; Rate 1 g/ha): 10
- Plant response rating (0 to 100), Corn (corn; Rate 4 g/ha): 20
- Plant response rating (0 to 100), Corn (corn; Rate 16 g/ha): 30
- Plant response rating, Bedstraw (bedstraw; 62 g/ha, 0 to 100 scale): 80
- Plant response rating (0 to 100), Bedstraw (bedstraw; Rate 1 g/ha): 40
- Plant response rating (0 to 100), Bedstraw (bedstraw; Rate 4 g/ha): 70
- Plant response rating (0 to 100), Bedstraw (bedstraw; Rate 16 g/ha): 80
- Plant response rating Downy Brome (downy brome; 62 g/ha, 0 to 100 scale): 60
- Plant response rating (0 to 100), Downy Brome (downy brome; Rate 1 g/ha): 20
- Plant response rating (0 to 100), Downy Brome (downy brome; Rate 4 g/ha): 50
- Plant response rating (0 to 100), Downy Brome (downy brome; Rate 16 g/ha): 60
- Plant response rating, Barnyardgrass (barnyardgrass; POSTEMERGENCE, Rate 10 g/ha): 5
- Plant response rating, Barnyardgrass (barnyardgrass; POSTEMERGENCE, Rate 50 g/ha): 6
- Plant response rating, Barnyardgrass (barnyardgrass; PREEMERGENCE, Rate 10 g/ha): 2
- Plant response rating, Barnyardgrass (barnyardgrass; PREEMERGENCE, Rate 50 g/ha): 6
- Plant response rating, Wild oat (wild oat; 62 g/ha, 0 to 100 scale): 60
- Plant response rating (0 to 100), Wild oat (wild oat; Rate 1 g/ha): 10
- Plant response rating (0 to 100), Wild oat (wild oat; Rate 4 g/ha): 30
- Plant response rating (0 to 100), Wild oat (wild oat; Rate 16 g/ha): 50
- Plant response rating, Wild buckwheat (wild buckwheat; POSTEMERGENCE, Rate 10 g/ha): 10
- Plant response rating, Wild buckwheat (wild buckwheat; POSTEMERGENCE, Rate 50 g/ha): 10
- Plant response rating, Wild buckwheat (wild buckwheat; PREEMERGENCE, Rate 50 g/ha): 10
- Plant response rating, Crabgrass (crabgrass; 62 g/ha, 0 to 100 scale): 40
- Plant response rating (0 to 100), Crabgrass (crabgrass; Rate 1 g/ha): 10
- Plant response rating (0 to 100), Crabgrass (crabgrass; Rate 4 g/ha): 20
- Plant response rating (0 to 100), Crabgrass (crabgrass; Rate 16 g/ha): 30
- Plant response rating, Rape (rape; POSTEMERGENCE, Rate 10 g/ha): 9
- Plant response rating, Rape (rape; POSTEMERGENCE, Rate 50 g/ha): 10
- Plant response rating, Rape (rape; PREEMERGENCE, Rate 50 g/ha): 3
- Plant response rating Ryegrass (ryegrass; 62 g/ha, 0 to 100 scale): 60
- Plant response rating (0 to 100), Ryegrass (ryegrass; Rate 1 g/ha): 20
- Plant response rating (0 to 100), Ryegrass (ryegrass; Rate 4 g/ha): 40
- Plant response rating (0 to 100), Ryegrass (ryegrass; Rate 16 g/ha): 50
- Plant response rating, Chickweed (chickweed; POSTEMERGENCE, Rate 10 g/ha): 7
- Plant response rating, Chickweed (chickweed; POSTEMERGENCE, Rate 50 g/ha): 9
- Plant response rating, Chickweed (chickweed; PREEMERGENCE, Rate 10 g/ha): 0
- Plant response rating, Chickweed (chickweed; PREEMERGENCE, Rate 50 g/ha): 6
- Plant response rating (0 to 100), Umbrella sedge (umbrella sedge; POSTEMERGENCE section, flood test, Rate 1 g/ha): 0
- Plant response rating (0 to 100), Umbrella sedge (umbrella sedge; POSTEMERGENCE section, flood test, Rate 4 g/ha): 0
- Plant response rating (0 to 100), Umbrella sedge (umbrella sedge; Rate 16 g/ha, under POSTEMERGENCE head (flood test species)): 30
- Plant response rating Umbrella sedge (umbrella sedge; flood test species listed under POSTEMERGENCE, 62 g/ha, 0 to 100 scale): 70
- Plant response rating, Sugar beet (sugar beet; 62 g/ha, 0 to 100 scale): 100
- Plant response rating (0 to 100), Sugar beet (sugar beet; Rate 1 g/ha): 100
- Plant response rating (0 to 100), Sugar beet (sugar beet; Rate 4 g/ha): 100
- Plant response rating (0 to 100), Sugar beet (sugar beet; Rate 16 g/ha): 100
